# Laboratory results published in patent US20250008983A1, “COMPOSITIONS CONTAINING PEROXYACIDS TO CONTROL PATHOGEN GROWTH IN ANIMAL FEED AND RELATED METHODS” (KEMIN INDUSTRIES, INC., priority 2023, published 2025).
# Where “and” joins values, the source holds several entries; their conditions need not be identical. Equal entries are not always repeated. Where two headings read alike, the source gives them in different places.
# Assays:
# Enterobacteriaceae = assay type: cell-based
# Method: Materials and Method. Naturally contaminated layer feed was collected, ground, and mixed well prior to weighing. The ground feed was weighed and separated into 15 different bags, each containing 300 g. The product/prototype was accurately weighed at the needed dosage and adjusted to a total volume of 5 mL prior to adding into the 300 g of feed with a syringe and needle. Product/prototype was added in batches (i.e., 2, 2, and 1 mL separately) and mixed after each addition. Five mL of sterile water was added into the feed and served as the control. The treated feed samples were homogenized after treatment and kept at 25° C. until the day of enumeration.
# TEC of the 15 samples were studied over a period of 22 days with enumeration interval at time points 0, 1 and 22 days. The effect of peroxy acid was neutralized at each time point prior to enumeration. At each time point, 20 mL of 0.1 M sodium thiosulphate was added into 10 g of each treated feed sample in a sterile bag. The mixture was mixed well and left to stand for 10 minutes. After 10 minutes, 70 mL of BPW was added to achieve 10^−1 dilution. The feed suspension was homogenously mixed and left to stand for 30 minutes. Subsequently, the feed suspension was serial diluted to appropriate dilutions for enumeration. 100 uL of the diluted samples were plated onto Violet Red Bile Glucose (VRBG; CM0485 from Oxoid) agar, prepared as per recommended by the supplier. An aliquot of 0.1 mL of the feed suspension was plated onto the agar at each dilution and incubated at 37° C. for 18-24 hours prior to enumeration. Plating was carried out in triplicates. If low TEC is expected, the sample size is increased to 1 mL by plating 300, 300 and 400 uL onto three plates in triplicates for lower detection limit (10 CFU/g). The diluted feed samples (at 10^−1 dilution factor) were kept at 37° C. for 18-24 hours for enrichment prior to streaking. A loopful of diluted feed suspension was streaked onto the VRBG agar and incubated at 37° C. for 18-24 hours to determine qualitatively the presence of Enterobacteriaceae for samples with undetectable TEC.
# [1] = test system: S. enteriditis ATCC 13076; test: Cell membrane permeability, crystal violet assay; assay type: cell-based, Salmonella enteriditis; conditions: n = 3, two hours at 37° C., ~pH 7, listed as PPA
# Method: Method. Cell membrane permeability was determined through crystal violet assay where an alteration in the outer cell membrane will result in a higher uptake of the dye, indicating a greater membrane permeability. An overnight culture of S. enteriditis ATCC 13076 in TSBYE was harvested with centrifugation at 6700 rcf for five minutes at room temperature using Eppendorf Centrifuge 5810 R. Upon aspirating the TSBYE, the cell pellets were washed with phosphate-buffered saline (PBS, pH 7.4, 10 mM) twice and resuspended in PBS. Subsequently, 0.75 mL of the cell suspension was added to 0.75 mL of the treatment (prepared in 10 mM PBS) into a two-milliliters microcentrifuge tube and incubated for two hours at 37° C. with agitation at 150 rpm. Cells without any treatments served as the negative control. After two hours of incubation, the cells were again harvested with centrifugation at 6700 rcf for five mins. Subsequently, the cells were resuspended in 10 μg/mL of crystal violet solution prepared in PBS and incubated for another 15 minutes with agitation at 150 rpm. After incubation, the suspension was centrifuged at 13,000 rcf for 15 minutes. The absorbance of the supernatant in each tube was measured at 590 nm. The percentage of dye uptake was calculated based on the ratio of absorbance values (Equation 1).
# [2] = Degradation of PPA in diluted/Opticurb solutions with mild steel; assay type: physicochemical; conditions: in contact with mild steel
# Method: Degradation of PPA in diluted/Opticurb solutions with mild steel. In another study, the solution of PPA with different diluents was measured for the peroxyacid content initially and after 1 h of immersing the […] to test the PPA degradation rate.
# [3] = 2.5% ammonium hydroxide, after 15 minutes
# [4] = 2.5% ammonium hydroxide, after 60 minutes
# [5] = 5% sodium hydroxide, after 15 minutes
# [6] = 5% sodium hydroxide, after 60 minutes
# [7] = Sodium phosphate buffer, after 15 minutes
# [8] = Sodium phosphate buffer, after 60 minutes
smiles,measurement,setting,value
"CCC(=O)OO [Perpropionic acid, perpropionic acid]",TEC,"Enterobacteriaceae; 2.5 kg/ton, post treatment Day 1",2.41 log CFU/g
same,TEC,"Enterobacteriaceae; 2.5 kg/ton, post treatment Day 22",<1.00 log CFU/g
same,TEC,"Enterobacteriaceae; 2.5 kg/ton, pre-treatment Day 0",2.12 log CFU/g
same,TEC,"Enterobacteriaceae; 5.0 kg/ton, post treatment Day 1",2.47 log CFU/g
same,TEC,"Enterobacteriaceae; 5.0 kg/ton, post treatment Day 22",1.73 log CFU/g
same,TEC,"Enterobacteriaceae; 5.0 kg/ton, pre-treatment Day 0",<2.00 log CFU/g
same,TEC,"Enterobacteriaceae; 10.0 kg/ton, post treatment Day 1",2.19 log CFU/g
same,TEC,"Enterobacteriaceae; 10.0 kg/ton, post treatment Day 22",<1.00 log CFU/g
same,TEC,"Enterobacteriaceae; 10.0 kg/ton, pre-treatment Day 0",<2.00 log CFU/g
same,"Dye uptake, Average ± SD",[1]; 1 kg/T,67.32% and 67.32 ± 0.80^d %
same,"Dye uptake, Average ± SD",[1]; 2.5 kg/T,83.82% and 83.82 ± 0.78^e %
same,"Dye uptake, Average ± SD",[1]; 5 kg/T,88.27% and 88.27 ± 0.42^f %
same,PPA degradation/min,[2]; 2.5% ammonium hydroxide,1.10%
same,H2O2 (%),[2]; [3],0.77%
same,PPA (%),[2]; [3],2.03%
same,H2O2 (%),[2]; [4],0.44%
same,PPA (%),[2]; [4],0.97%
same,PPA degradation/min,[2]; 5% sodium hydroxide,1.16%
same,H2O2 (%),[2]; [5],0.9%
same,PPA (%),[2]; [5],2.93%
same,H2O2 (%),[2]; [6],0.37%
same,PPA (%),[2]; [6],1.48%
same,H2O2 (%),[2]; [7],1.67%
same,PPA (%),[2]; [7],5.27%
same,H2O2 (%),[2]; [8],1.6%
same,PPA (%),[2]; [8],4.67%
same,PPA degradation after an hour,[2]; ammonium hydroxide (2.5% wt),50%
same,PPA degradation after an hour,[2]; sodium hydroxide (5% wt.),52%
same,PPA degradation after an hour,[2]; sodium phosphate buffer,~11%
same,PPA degradation/min,[2]; sodium phosphate buffer,0.25%
